What was measured:
Assay in all cases: relative viability (nuclei count vs DMSO), 5 days (fraction); higher = more cells survive
Axitinib + Navitoclax = compound: CNC(=O)c1ccccc1Sc1ccc2c(/C=C/c3ccccn3)n[nH]c2c1 [Axitinib] + CC1(C)CCC(c2ccc(Cl)cc2)=C(CN2CCN(c3ccc(C(=O)NS(=O)(=O)c4ccc(N[C@H](CCN5CCOCC5)CSc5ccccc5)c(S(=O)(=O)C(F)(F)F)c4)cc3)CC2)C1 [Navitoclax] (partner 0.5 µM)
Procedure, shortened: (§1)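 Lung cancer cell lines were pin-tool dosed in 1536-well plates on the day after seeding, with either a lone drug or a fixed anchor-drug dose plus five library-drug doses (not always all listed) in √10 steps. Nuclei were counted on 4× images after 5 days. Relative viability is the ratio of treated-well to vehicle-well nuclei counts, with each value a median of duplicate plates.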

Bemcentinib + Pemetrexed = compound: Nc1nc(Nc2ccc3c(c2)CC[C@@H](N2CCCC2)CC3)nn1-c1cc2c(nn1)-c1ccccc1CCC2 [Bemcentinib] + Nc1nc2[nH]cc(CCc3ccc(C(=O)N[C@@H](CCC(=O)O)C(=O)O)cc3)c2c(=O)[nH]1 [Pemetrexed] (partner 0.2 µM)
Procedure, shortened: as §1

[1] = compound: CC1=CC=C(C=C1)C(=O)CN2C3=C(CCCC3)SC2=N [Pifithrin_alpha] + CC1(C)CCC(c2ccc(Cl)cc2)=C(CN2CCN(c3ccc(C(=O)NS(=O)(=O)c4ccc(N[C@H](CCN5CCOCC5)CSc5ccccc5)c(S(=O)(=O)C(F)(F)F)c4)cc3)CC2)C1 [Navitoclax] (partner 0.5 µM)
Procedure, shortened: as §1

Axitinib + Palbociclib = compound: CNC(=O)c1ccccc1Sc1ccc2c(/C=C/c3ccccn3)n[nH]c2c1 [Axitinib] + CC(=O)c1c(C)c2cnc(Nc3ccc(N4CCNCC4)cn3)nc2n(C2CCCC2)c1=O [Palbociclib] (partner 0.5 µM)
Procedure, shortened: as §1

Cell Line	relative viability (Axitinib + Navitoclax; first compound 0.005 µM)	relative viability (Axitinib + Navitoclax; first compound 0.01581 µM)	relative viability (Axitinib + Navitoclax; first compound 0.05 µM)	relative viability (Axitinib + Navitoclax; first compound 0.1581 µM)	relative viability (Axitinib + Navitoclax; first compound 0.5 µM)	relative viability (Bemcentinib + Pemetrexed; first compound 0.04 µM)	relative viability (Bemcentinib + Pemetrexed; first compound 0.1265 µM)	relative viability (Bemcentinib + Pemetrexed; first compound 0.4 µM)	relative viability (Bemcentinib + Pemetrexed; first compound 1.265 µM)	relative viability (Bemcentinib + Pemetrexed; first compound 4 µM)	relative viability ([1]; first compound 1 µM)	relative viability ([1]; first compound 3.162 µM)	relative viability ([1]; first compound 10 µM)	relative viability ([1]; first compound 31.62 µM)	relative viability ([1]; first compound 100 µM)	relative viability (Axitinib + Palbociclib; first compound 0.005 µM)	relative viability (Axitinib + Palbociclib; first compound 0.01581 µM)	relative viability (Axitinib + Palbociclib; first compound 0.05 µM)	relative viability (Axitinib + Palbociclib; first compound 0.1581 µM)	relative viability (Axitinib + Palbociclib; first compound 0.5 µM)
A-427	0.999	1.05	0.925	0.958	1.04	0.966	1.02	1.08	0.928	0.936	0.803	0.843	0.79	0.773	0.933	0.491	0.511	0.564	0.567	0.543
LXF-289	0.952	0.944	0.944	0.945	0.928	0.907	0.974	0.984	0.993	0.92	0.984	1.01	0.96	0.793	0.901	0.597	0.539	0.603	0.583	0.657
NCI-H1355	0.992	0.921	0.948	1.01	0.991	1.06	1.16	1.13	1.03	1.04	0.812	0.675	0.692	0.556	0.563	0.415	0.443	0.426	0.414	0.409
NCI-H1437	1.14	1.07	1.13	1.11	1.09	0.305	0.323	0.322	0.362	0.331	1.25	1.16	1.13	0.784	0.775	0.353	0.283	0.346	0.307	0.313
HCC-366	1.07	1.03	1.01	1.06	1.15	0.175	0.185	0.179	0.173	0.157	1.12	1.11	0.886		0.925	0.438	0.378	0.399	0.36	0.524
NCI-H1299	1.14	1.04	1.07	1.04	1.07						1.07	1.08	1	0.952	1					
201T	1.21	1.18	1.18	1.27	1.23	0.307	0.361	0.326	0.361	0.327	1.18	1.19	1.15	1.04	1.05	0.376	0.361	0.335	0.351	0.343
IA-LM	0.88	0.79	0.944	0.823	0.829						0.747	0.339	0.259	0.275	0.262					
EBC-1	0.468	0.443	0.453	0.509	0.554						0.386	0.318	0.29	0.221	0.224					
A549	1.19	1.24	1.25	1.13	1.18						1.37	1.26	1.14	0.985	1.29					
SW 900						0.492	0.541	0.485	0.433	0.48						0.629		0.587	0.502	0.6
NCI-H2342						0.703	0.805	0.823	0.728	0.787						0.503	0.524	0.536	0.614	0.485
Calu-6	0.923	0.87	0.751	0.885	0.929						0.976	0.741	0.781	0.508	0.704					
NCI-H1648						0.717	0.761	0.818	0.697	0.841						0.215	0.291	0.219	0.273	0.235
NCI-H358						0.176	0.177	0.166	0.187	0.179						0.17	0.159	0.143	0.129	0.13
ABC-1																0.756		0.632	0.626	0.854
NCI-H727	0.582	0.466	0.454	0.451	0.61						0.356	0.412	0.307	0.244	0.271	0.597	0.66	0.596	0.673	0.613
NCI-H1703	0.868	0.36	0.306	0.212	0.305						1.34	0.99	1.1	0.674	1.12					
NCI-H661						0.906	0.953	0.965	0.899	0.991						0.412	0.392	0.424	0.405	0.428
NCI-H522						1.03	0.908	0.897	1.04	1.18						0.892	0.966	1.01	1.05	0.915
NCI-H1563						0.768	0.716	0.844	0.663	0.772										
LCLC-103H						0.422	0.478	0.428	0.455	0.434						0.475	0.464	0.493	0.474	0.451
NCI-H596	0.979	0.859	1.04	0.847	0.969	0.477	0.53	0.55	0.478	0.474	0.844	0.891	0.9	0.88	1.13					
